According to ChEMBL document CHEMBL1201862, “PubChem BioAssay data set” (2004):
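Exposure lasted 48 hours, with cells grown in 96-well plates and compounds tested at five concentrations. GI50: concentration for 50% inhibition of growth.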 The source made the active and inactive calls. Cut-off read from the data, not from the text of the source: active = GI50 up to about 1.1 µM and inactive = higher.

Legend:
Assay in all cases: NCI anticancer screen, dose series, 48 h
SN12C = tested on: SN12C
786-0 = tested on: 786-0
TK-10 = tested on: TK-10
SNB-19 = tested on: SNB-19
SK-MEL-28 = tested on: SK-MEL-28
A498 = tested on: A498
SF-268 = tested on: SF-268
SNB-75 = tested on: SNB-75
KM-20L2 = tested on: KM-20L2
SK-MEL-2 = tested on: SK-MEL-2
COLO 205 = tested on: COLO 205
RPMI-8226 = tested on: RPMI-8226
NCI-H522 = tested on: NCI-H522
Malme-3M = tested on: Malme-3M
EKVX = tested on: EKVX
HCC 2998 = tested on: HCC 2998
SNB-78 = tested on: SNB-78
M19-MEL = tested on: M19-MEL
OVCAR-8 = tested on: OVCAR-8
IGROV-1 = tested on: IGROV-1
MOLT-4 = tested on: MOLT-4
K562 = tested on: K562
U-251 = tested on: U-251
A549 = tested on: A549
CCRF-CEM = tested on: CCRF-CEM
OVCAR-3 = tested on: OVCAR-3
ACHN = tested on: ACHN
UACC-257 = tested on: UACC-257
UACC-62 = tested on: UACC-62
HCT-15 = tested on: HCT-15
HOP-62 = tested on: HOP-62
NCI-H23 = tested on: NCI-H23
XF498 = tested on: XF498
SK-OV-3 = tested on: SK-OV-3
KM12 = tested on: KM12
DLD-1 = tested on: DLD-1
NCI-H460 = tested on: NCI-H460
SW-620 = tested on: SW-620
SF-295 = tested on: SF-295
HT-29 = tested on: HT-29
M14 = tested on: M14
SK-MEL-5 = tested on: SK-MEL-5
CAKI-1 = tested on: CAKI-1
OVCAR-5 = tested on: OVCAR-5
DMS-114 = tested on: DMS-114
OVCAR-4 = tested on: OVCAR-4
LXFL 529 = tested on: LXFL 529
UO-31 = tested on: UO-31
HL-60 = tested on: HL-60
HCT-116 = tested on: HCT-116
HOP-92 = tested on: HOP-92
LOX IMVI = tested on: LOX IMVI
NCI-H226 = tested on: NCI-H226
SR = tested on: SR
DMS-273 = tested on: DMS-273
SF-539 = tested on: SF-539
HOP-18 = tested on: HOP-18
RXF 393 = tested on: RXF 393

Structure (SMILES): COc1ccc(C=C2C(=O)OC(C)(C)OC2=O)cc1OC
- GI50 (SN12C): > 100 µM (inactive)
- GI50 (786-0): > 100 µM (inactive)
- GI50 (TK-10): > 100 µM (inactive)
- GI50 (SNB-19): > 100 µM (inactive)
- GI50 (SK-MEL-28): > 100 µM (inactive)
- GI50 (A498): > 100 µM (inactive)
- GI50 (SF-268): > 100 µM (inactive)
- GI50 (SNB-75): 80.7 µM (inactive)
- GI50 (KM-20L2): > 100 µM (inactive)
- GI50 (SK-MEL-2): > 100 µM (inactive)
- GI50 (COLO 205): > 100 µM (inactive)
- GI50 (RPMI-8226): > 100 µM (inactive)
- GI50 (NCI-H522): > 100 µM (inactive)
- GI50 (Malme-3M): > 100 µM (inactive)
- GI50 (EKVX): > 100 µM (inactive)
- GI50 (HCC 2998): > 100 µM (inactive)
- GI50 (SNB-78): > 100 µM (inactive)
- GI50 (M19-MEL): > 100 µM (inactive)
- GI50 (OVCAR-8): > 100 µM (inactive)
- GI50 (IGROV-1): > 100 µM (inactive)
- GI50 (MOLT-4): > 100 µM (inactive)
- GI50 (K562): > 100 µM (inactive)
- GI50 (U-251): > 100 µM (inactive)
- GI50 (A549): > 100 µM (inactive)
- GI50 (CCRF-CEM): > 100 µM (inactive)
- GI50 (OVCAR-3): > 100 µM (inactive)
- GI50 (ACHN): > 100 µM (inactive)
- GI50 (UACC-257): > 100 µM (inactive)
- GI50 (UACC-62): > 100 µM (inactive)
- GI50 (HCT-15): > 100 µM
- GI50 (HOP-62): > 100 µM (inactive)
- GI50 (NCI-H23): > 100 µM (inactive)
- GI50 (XF498): > 100 µM (inactive)
- GI50 (SK-OV-3): > 100 µM (inactive)
- GI50 (KM12): > 100 µM (inactive)
- GI50 (DLD-1): > 100 µM (inactive)
- GI50 (NCI-H460): > 100 µM (inactive)
- GI50 (SW-620): > 100 µM (inactive)
- GI50 (SF-295): > 100 µM (inactive)
- GI50 (HT-29): > 100 µM (inactive)
- GI50 (M14): > 100 µM (inactive)
- GI50 (SK-MEL-5): > 100 µM (inactive)
- GI50 (CAKI-1): > 100 µM (inactive)
- GI50 (OVCAR-5): > 100 µM (inactive)
- GI50 (DMS-114): > 100 µM (inactive)
- GI50 (OVCAR-4): > 100 µM (inactive)
- GI50 (LXFL 529): > 100 µM (inactive)
- GI50 (UO-31): > 100 µM (inactive)

Structure (SMILES): N#Cc1nc(Nc2cccc3ccccc23)sc1N
- GI50 (SN12C): 14.1 µM (inactive)
- GI50 (786-0): 33 µM (inactive)
- GI50 (TK-10): 40.6 µM (inactive)
- GI50 (SNB-19): 38.8 µM (inactive)
- GI50 (SK-MEL-28): 37.9 µM (inactive)
- GI50 (SF-268): 20.4 µM (inactive)
- GI50 (HL-60): 20.7 µM (inactive)
- GI50 (SNB-75): 42.8 µM (inactive)
- GI50 (KM-20L2): 43.2 µM (inactive)
- GI50 (SK-MEL-2): 28.5 µM (inactive)
- GI50 (COLO 205): 24.6 µM (inactive)
- GI50 (RPMI-8226): 11.9 µM (inactive)
- GI50 (NCI-H522): 15.9 µM (inactive)
- GI50 (Malme-3M): 26.2 µM (inactive)
- GI50 (HCC 2998): 20.3 µM (inactive)
- GI50 (SNB-78): 13 µM (inactive)
- GI50 (M19-MEL): 28.5 µM (inactive)
- GI50 (OVCAR-8): 31.4 µM (inactive)
- GI50 (IGROV-1): 45.1 µM (inactive)
- GI50 (MOLT-4): 11.5 µM (inactive)
- GI50 (K562): 25.8 µM (inactive)
- GI50 (U-251): 22.2 µM (inactive)
- GI50 (A549): 26.5 µM (inactive)
- GI50 (HCT-116): 32.1 µM (inactive)
- GI50 (OVCAR-3): 44.6 µM (inactive)
- GI50 (ACHN): 25.1 µM (inactive)
- GI50 (UACC-257): 15.8 µM (inactive)
- GI50 (UACC-62): 21.2 µM (inactive)
- GI50 (HCT-15): 29.5 µM
- GI50 (HOP-62): 33.3 µM (inactive)
- GI50 (NCI-H23): 14 µM (inactive)
- GI50 (HOP-92): 21.1 µM (inactive)
- GI50 (XF498): 20.3 µM (inactive)
- GI50 (LOX IMVI): 17.3 µM (inactive)
- GI50 (SK-OV-3): 38 µM (inactive)
- GI50 (KM12): 30.2 µM (inactive)
- GI50 (DLD-1): 48.4 µM (inactive)
- GI50 (NCI-H460): 35 µM (inactive)
- GI50 (SW-620): 41.2 µM (inactive)
- GI50 (NCI-H226): 41.8 µM (inactive)
- GI50 (SR): 3.05 µM (inactive)
- GI50 (SF-295): 28.3 µM (inactive)
- GI50 (HT-29): 41.1 µM (inactive)
- GI50 (M14): 39.9 µM (inactive)
- GI50 (DMS-273): 36.8 µM (inactive)
- GI50 (SF-539): 23.2 µM (inactive)
- GI50 (CAKI-1): 28.7 µM (inactive)
- GI50 (OVCAR-5): 68.9 µM (inactive)
- GI50 (OVCAR-4): 57.7 µM (inactive)
- GI50 (LXFL 529): 29.9 µM (inactive)
- GI50 (UO-31): 12.9 µM (inactive)

Structure (SMILES): Nc1ccc2c(c1)CC1c3ccccc3C(C2)c2ccccc21
- GI50 (SN12C): > 100 µM (inactive)
- GI50 (786-0): > 100 µM (inactive)
- GI50 (TK-10): > 100 µM (inactive)
- GI50 (SNB-19): > 100 µM (inactive)
- GI50 (A498): > 100 µM (inactive)
- GI50 (SF-268): > 100 µM (inactive)
- GI50 (HL-60): > 100 µM (inactive)
- GI50 (HOP-18): > 100 µM (inactive)
- GI50 (SNB-75): > 100 µM (inactive)
- GI50 (KM-20L2): > 100 µM (inactive)
- GI50 (SK-MEL-2): > 100 µM (inactive)
- GI50 (COLO 205): > 100 µM (inactive)
- GI50 (RPMI-8226): 34.6 µM (inactive)
- GI50 (NCI-H522): > 100 µM (inactive)
- GI50 (Malme-3M): > 100 µM (inactive)
- GI50 (HCC 2998): > 100 µM (inactive)
- GI50 (SNB-78): > 100 µM (inactive)
- GI50 (M19-MEL): > 100 µM (inactive)
- GI50 (OVCAR-8): > 100 µM (inactive)
- GI50 (IGROV-1): > 100 µM (inactive)
- GI50 (MOLT-4): > 100 µM (inactive)
- GI50 (K562): > 100 µM (inactive)
- GI50 (U-251): > 100 µM (inactive)
- GI50 (A549): > 100 µM (inactive)
- GI50 (CCRF-CEM): 47.3 µM (inactive)
- GI50 (HCT-116): > 100 µM (inactive)
- GI50 (RXF 393): > 100 µM (inactive)
- GI50 (ACHN): > 100 µM (inactive)
- GI50 (UACC-257): > 100 µM (inactive)
- GI50 (UACC-62): > 100 µM (inactive)
- GI50 (HCT-15): > 100 µM
- GI50 (HOP-62): > 100 µM (inactive)
- GI50 (HOP-92): > 100 µM (inactive)
- GI50 (LOX IMVI): > 100 µM (inactive)
- GI50 (SK-OV-3): > 100 µM (inactive)
- GI50 (KM12): > 100 µM (inactive)
- GI50 (DLD-1): > 100 µM (inactive)
- GI50 (NCI-H460): > 100 µM (inactive)
- GI50 (SW-620): > 100 µM (inactive)
- GI50 (SR): 9.68 µM (inactive)
- GI50 (SF-295): > 100 µM (inactive)
- GI50 (HT-29): > 100 µM (inactive)
- GI50 (M14): > 100 µM (inactive)
- GI50 (SK-MEL-5): > 100 µM (inactive)
- GI50 (DMS-273): > 100 µM (inactive)
- GI50 (SF-539): > 100 µM (inactive)
- GI50 (CAKI-1): > 100 µM (inactive)
- GI50 (OVCAR-5): > 100 µM (inactive)
- GI50 (DMS-114): > 100 µM (inactive)
- GI50 (OVCAR-4): > 100 µM (inactive)
- GI50 (LXFL 529): > 100 µM (inactive)
- GI50 (UO-31): > 100 µM (inactive)
